Data on 26 molecules can be found in US6693123B2 (University of Pittsburgh, priority 1995, dated 2004).

Counter-ions that a name gives are not always drawn. Like-named read-outs stand apart in the source and are kept apart here.

Data set [1] has as its target T1, Rat brain protein farnesyltransferase (Rattus norvegicus, UniProt Q02293+Q04631).
T1 construct: The enzyme is purified according to Reiss, Y., et al., Cell, 62: 81-88 (1990), utilizing steps one through three; from tissue; host or cells: rat brain
Description: In vitro inhibition of protein farnesyltransferase, Amersham scintillation proximity assay with biotin-K Ras B fragment. Format: biochemical. As to conditions: for inhibition at 1 µM / % inhibition at 1 × 10^−6 M: compound at 1 × 10^−6 M (Table 2); for inhibition at 1 µM: read-out: % inhibition at 1 × 10^−6 M; for inhibition at 10 µM: compound at 1 × 10^−5 M (Table 1); for inhibition at 0.01 µM: read-out: % inhibition at 0.01 μM; for inhibition at 0.1 µM: read-out: % inhibition at 0.1 μM. In general terms: Scintillation proximity formats need no separation of bound from free tracer.

For data set [2], the system named is geranylgeranyltransferase I. Description: Inhibition of geranylgeranyltransferase I (glass fiber filter binding assay, H-Ras-CVLL, 3H-GGPP). As to conditions: for Activity: % inhibition at 1 × 10^−6 M: compound at 1 × 10^−6 M (Table 5); for Activity: % inhibition at 1 × 10^−7 M: compound at 1 × 10^−7 M (Table 5); for Activity: % inhibition at 1 × 10^−5 M: compound at 1 × 10^−5 M (Table 5). Format: biochemical, bovine. The source says: The ability of the compounds of the invention to inhibit protein farnesyltransferase or protein geranylgeranyltransferase can be measured according to the method of Moores, et al., J. Biol. Chem. 266: 14603 (1991) or the method of Vogt, et al., J. Biol. Chem. 270:660-664 (1995). In addition, procedures for determination of the inhibition of farnesylation of the oncogene protein Ras are described by Goldstein, et al., J. Biol. Chem., 266:15575-15578 (1991) and by Singh in U.S. Pat. No. 5,245,061.
Additional methods for the measurement of in vitro inhibition of protein prenylation (i.e., inhibition of farnesyltransferase or geranylgeranyltransferase) are described below.
Assays are performed using the glass fiber filter binding assay procedure with either rabbit reticulocyte lysate or Frase or GGTase I fractions isolated from bovine brains using a combination of hydrophobic and DEAE column chromatography procedures. Protein substrates are purchased from Panvera Corporation (H-ras for FTase, H-ras-CVLL for GGTase I). Tritium labeled prenyl lipid substrates (FPP or GGPP) are obtained from Amersham Life Science.
^3H-geranylgeranyldiphosphate (final concentration 0.5 μM), H-Ras-CVLL (final concentration 5.0 μM) and the test compound (various final concentrations from a stock solution in 1:1 DMSO/water; final concentration DMSO <2%) were mixed in buffer (50 mM Tris-HCl (pH 7.2), 30 mM MgCl2, 20 mM KCl, 10 μM ZnCl2, 5 mM DTT, 0.01% Triton X-100) to give a final volume of 50 μL. The mixture was brought to 37° C., treated with enzyme, and incubated for 30 minutes. 1 mL of 1 M HCl/ethanol was added to stop the reaction, and the mixture was allowed to stand for 15 minutes at room temperature then diluted with 2 mL of ethanol. The reaction mixture was filtered through a 2.5 cm glass microfiber filter from Whatman and washed with four 2 mL portions of ethanol. The glass filter was transferred to a scintillation vial, and 5 mL scintillation fluid was added. The radioisotope retained on the glass fiber filter was counted to reflect the activity of the enzymes. The IC50 value was calculated by measuring the activity of the enzyme over a suitable range of inhibitor concentrations.

Where [3] appears, read: Inhibition of farnesyltransferase.
Setting [4] is: Inhibition of farnesyltransferase, compound at 0.01 μM (Table 6, values marked **).

As to `CSCC[C@H](NC(=O)c1ccc(COc2cccnc2)cc1Oc1ccccc1)C(=O)O` [Example 157, [4-(3-Pyridyloxymethylene)-2-phenoxybenzoyl]methionine], the melting point – broadly, the temperature, or range, at which the solid turns liquid – was found to be 195 °C. In addition, the inhibition (commonly the relative decrease from the control value, in per cent) at 1 µM in data set [1] (setting [3]) was 92%.

For the molecule `Cc1cc(C)cc(-c2cc(NCc3cnc[nH]3)ccc2C(=O)N[C@@H](CC(C)C)C(=O)O)c1` [Example 399], the inhibition at 1 µM in data set [1] (setting [3]) was greater than 50%. In addition, the “Activity: % inhibition at 1 × 10^−6 M” value in data set [2] is >50% inhibition at 1 × 10^−6 M.

Molecule `CC(C)C[C@H](NC(=O)c1ccc(NCc2ncc[nH]2)cc1-c1ccccc1)C(=O)O` [Example 953, N-[4-(Imidazol-2-ylmethylamino)-2-phenylbenzoyl]leucine] yielded a melting point of 156 to 160 °C. Besides, in data set [2], the “Activity: % inhibition at 1 × 10^−6 M” value is >50% inhibition at 1 × 10^−6 M.

`CC(C)C[C@H](NC(=O)c1ccc(CNCc2c[nH]cn2)cc1-c1cccc2ccccc12)C(=O)O` [Example 955, N-[4-(Imidazol-4-ylmethylaminomethyl)-2-naphth-1-ylbenzoyl]leucine] came in with an inhibition at 10 µM in data set [1] (setting [3]) of 50%. Moreover, the “Activity: % inhibition at 1 × 10^−7 M” value in data set [2] is reported as >50% inhibition at 1 × 10^−7 M.

Turning to `Cc1ccccc1-c1cc(NCc2c[nH]cn2)ccc1C(=O)N[C@@H](CC(C)C)C(=O)O` [Example 962, N-[4-(Imidazol-4-ylmethylamino)-2-(2-methylphenyl)benzoyl]leucine Hydrochloride], the inhibition at 1 µM in data set [1] (setting [3]) is greater than 50%. Besides, the “Activity: % inhibition at 1 × 10^−7 M” value in data set [2] was >50% inhibition at 1 × 10^−7 M.

Turning to `CC(C)C[C@H](NC(=O)c1ccc(OCCn2ccnc2)cc1-c1ccccc1)C(=O)O` [Example 964, N-[4-(2-Imidazol-1-ylethoxy)-2-phenylbenzoyl]leucine], the inhibition at 1 µM in data set [1] (setting [3]) was greater than 50%. Moreover, the “Activity: % inhibition at 1 × 10^−6 M” value in data set [2] is listed as >50% inhibition at 1 × 10^−6 M.

Consider `CC(C)C[C@H](NC(=O)c1ccc(NCc2ncc[nH]2)cc1-c1cccc2ccccc12)C(=O)O` [Example 966, N-[4-(Imidazol-2-ylmethylamino)-2-naphth-1-ylbenzoyl]leucine], for which the “Activity: % inhibition at 1 × 10^−6 M” value in data set [2] is on record as >50% inhibition at 1 × 10^−6 M.

As for `CC(C)C[C@H](NC(=O)c1ccc(NCc2c[nH]cn2)cc1-c1ccccc1)C(=O)O` [Example 967, N-[4-(Imidazol-4-ylmethylamino)-2-phenylbenzoyl]leucine], the “Activity: % inhibition at 1 × 10^−6 M” value in data set [2] is listed as >50% inhibition at 1 × 10^−6 M.

In the case of `CC(C)C[C@H](NC(=O)c1ccc(NCc2ccncc2)cc1-c1cccc2ccccc12)C(=O)O` [Example 969, N-[4-(Pyrid-4-ylmethylamino)-2-naphth-1-ylbenzoyl]leucine], the “Activity: % inhibition at 1 × 10^−5 M” value in data set [2] is on record as >50% inhibition at 1 × 10^−5 M.

The molecule `O=C(N[C@@H](CC1CCCCC1)C(=O)O)c1ccc(NCc2c[nH]cn2)cc1-c1cccc2ccccc12` [Example 974, N-[4-(Imidazol-4-ylmethylamino)-2-naphth-1-ylbenzoyl]cyclohexyalanine] yielded an inhibition at 10 µM in data set [1] (setting [3]) greater than 50%. Also, the “Activity: % inhibition at 1 × 10^−5 M” value in data set [2] is given as >50% inhibition at 1 × 10^−5 M.

For `CSCC[C@H](NC(=O)c1ccc(/C=C(\C#N)c2cccnc2)cc1-c1ccccc1C)C(=O)O` [Example 1076, N-[4-(Z-2-Cyano-2-pyrid-3-ylethenyl)-2-(2-methylphenyl)benzoyl]methionine, Lithium Salt], the inhibition at 0.01 µM in data set [1] was 69%.

In the case of `CSCC[C@H](NC(=O)c1ccc(/C=C(/C(=O)OC(C)(C)C)c2cccnc2)cc1-c1ccccc1C)C(=O)O` [Example 1077, N-[4-(E-2-t-Butoxycarbonyl-2-pyrid-3-ylethenyl)-2-(2-methylphenyl)benzoyl]methionine, Lithium Salt], the inhibition at 0.01 µM in data set [1] is 93%.

As for `CSCC[C@H](NC(=O)c1ccc(/C=C(\C(=O)OC(C)(C)C)c2cccnc2)cc1-c1ccccc1C)C(=O)O` [Example 1078, N-[4-(Z-2-t-Butoxycarbonyl-2-pyrid-3-ylethenyl)-2-(2-methylphenyl)benzoyl]methionine, Lithium Salt], the inhibition at 0.1 µM in data set [1] is 86%.

Take `CSCC[C@H](NC(=O)c1ccc(CN(Cc2cccnc2)Cc2cc(F)cc(F)c2)cc1-c1ccccc1C)C(=O)O` [Example 1286, N-[4-N-(N-(3-Pyridylmethyl)-N-(3,5-difluorobenzyl)aminomethyl)-2-(2-methylphenyl)benzoyl]methionine Lithium Salt]: the inhibition at 0.01 µM in data set [1] came out at 85%.

For the molecule `CSCC[C@H](NC(=O)c1ccc(CN(Cc2cccnc2)c2cc(F)cc(F)c2)cc1-c1ccccc1C)C(=O)O` [Example 1287, N-[4-N-(N-3,5-Difluorophenyl-N-(3-pyridylmethyl)aminomethyl)-2-(2-methylphenyl)benzoyl]methionine Lithium Salt], the inhibition at 0.01 µM in data set [1] is 95%.

For `CSCC[C@H](NC(=O)c1ccc(CN(CCCn2ccnc2)Cc2cc(F)cc(F)c2)cc1-c1ccccc1C)C(=O)O` [Example 1298, N-[4-N-(N-(3-(1-Imidazole)-propyl)-N-(3,5-difluorobenzyl)aminomethyl)-2-(2-methylphenyl)benzoyl]methionine Lithium Salt], in data set [1], the inhibition at 0.01 µM is 97%.

`CSCC[C@H](NC(=O)c1ccc(CN(Cc2cc(F)cc(F)c2)c2cccnc2)cc1-c1ccccc1C)C(=O)O` [Example 1360, N-[4-N-3,5-Difluorobenzyl-N-(3-pyridyl)aminomethyl-2-(2-methylphenyl)benzoyl]methionine Lithium Salt]: the inhibition at 0.01 µM in data set [1] was determined as 98%.

For the molecule `COc1ccncc1C=Cc1ccc(C(=O)N[C@@H](CCSC)C(=O)O)c(-c2ccccc2C)c1` [Example 1361, N-[4-(2-(4-Methoxypyridin-3-yl)ethenyl)-2-(2-methylphenyl)benzoyl]methionine Sodium Salt], the inhibition at 0.1 µM in data set [1] (Inhibition of farnesyltransferase, compound at 0.1 μM (Table 6, values marked *)) worked out at 96%.

`CCCOc1ccncc1C=Cc1ccc(C(=O)N[C@@H](CCSC)C(=O)O)c(-c2ccccc2C)c1` [Example 1362, N-[4-(2-(4-Propyloxypyridin-3-yl)ethenyl)-2-(2-methylphenyl)benzoyl]methionine Sodium Salt]: the inhibition at 0.01 µM in data set [1] (setting [4]) was found to be 83%.

For the molecule `CSCC[C@H](NC(=O)c1ccc(C=Cc2cnccc2OCc2cc(F)cc(F)c2)cc1-c1ccccc1C)C(=O)O` [Example 1363, N-[4-(2-(4-(3,5-Difluorobenzyl)oxypyridin-3-yl)ethenyl)-2-(2-methylphenyl)benzoyl]methionine Sodium Salt], the inhibition at 0.01 µM in data set [1] (setting [4]) is 88%.

Turning to “N-[4-(3-Imidazol-1-ylprolpylaminosulfonyl)-2-phenylbenzoyl]methionine Lithium Salt [Example 777]”, the % inhibition (usually the share of the control response that was lost under treatment) at 1 × 10^−6 M in data set [1] (setting [3]) was 83%.

In the case of “[4-(3-Pyridyloxymethyl)-2-(2-chlorophenyl)benzoyl]methionine Methyl Ester [Example 305]”, the “% inhibition at 1 × 10^−6 M” value in data set [1] (setting [3]) was 99%.

For “[4-(3-Pyridyloxymethyl)-2-(2-ethylphenyl)benzoyl]methionine Methyl Ester [Example 306]”, in data set [1] (setting [3]), the “% inhibition at 1 × 10^−6 M” value came to 99%.

As to “[4-(3-Pyridyloxymethyl)-2-phenylbenzoyl]cysteine Disodium Salt [Example 188]”, in data set [1] (setting [3]), the “% inhibition at 1 × 10^−6 M” value is given as 40%.

Consider “{4-[2-(3-Pyridy)-2-hydroxyethyl]-2-phenylbenzoyl]methionine Sodium Salt and {4-[2-(3-Pyridy)-1-hydroxyethyl]-2-phenylbenzoyl}methionine Sodium Salt [Example 284]”, for which the “% inhibition at 1 × 10^−6 M” value in data set [1] (setting [3]) came to 83%.

For “{4-[2-(Pyrid-3-yl)ethenyl]-2-(2-methylphenyl)benzyl}methionine Butyl Ester [Example 292]”, the “% inhibition at 1 × 10^−6 M” value in data set [1] (setting [3]) amounted to 36%.
